Activity calls are given as the source filed them. The rule behind the calls is not given here.

The subject of assay [1] is Bacillus subtilis. Description: Antibacterial activity against Bacillus subtilis KCTC 1021 at 400 ug/disk after 48 hrs by disk diffusion method. Type of assay: functional. The following applies: KCTC 1021, 48 h, read-out: IZ.
The test system of a further assay is Candida albicans. Nature of the assay: Antifungal activity against Candida albicans KCTC 7965 at 400 ug/disk after 48 hrs by disk diffusion method. In kind it is functional, organism-based.
The next assay concerns Cryptococcus neoformans. Description: Antifungal activity against Filobasidiella neoformans KCTC 7003 at 400 ug/disk after 48 hrs by disk diffusion method. Type of assay: functional, organism-based. Background: In agar diffusion tests the substance spreads into inoculated agar from a disc or well.
Another assay concerns Proteus vulgaris. Nature of the assay: Antibacterial activity against Proteus vulgaris KACC 12674 at 400 ug/disk after 48 hrs by disk diffusion method. Type of assay: functional, organism-based.
The target in assay [2] is T1, Tyrosine-protein phosphatase non-receptor type 1 (Homo sapiens) (UniProt P18031).
T1 sequence (whole entry): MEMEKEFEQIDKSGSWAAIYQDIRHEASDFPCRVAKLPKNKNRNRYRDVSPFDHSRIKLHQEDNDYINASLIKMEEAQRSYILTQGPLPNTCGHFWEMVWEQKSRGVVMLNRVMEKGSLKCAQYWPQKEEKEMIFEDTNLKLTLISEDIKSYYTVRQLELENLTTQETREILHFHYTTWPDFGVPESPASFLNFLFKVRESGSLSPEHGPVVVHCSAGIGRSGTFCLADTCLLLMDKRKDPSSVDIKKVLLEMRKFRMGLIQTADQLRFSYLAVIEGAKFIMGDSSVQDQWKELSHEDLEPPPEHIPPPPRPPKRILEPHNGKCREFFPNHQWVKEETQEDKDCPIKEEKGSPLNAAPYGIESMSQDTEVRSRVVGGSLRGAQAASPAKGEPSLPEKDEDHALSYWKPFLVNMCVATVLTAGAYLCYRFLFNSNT
Description: Inhibition of human recombinant PTP1B assessed as p-nitrophenol release at 150 ug/ml after 30 mins by spectrophotometry.

Assay [3] deals with Staphylococcus aureus. Description: Antibacterial activity against Staphylococcus aureus KCTC 1928 at 400 ug/disk after 48 hrs by disk diffusion method. To be noted: KCTC 1928, 48 h, read-out: IZ. Type of assay: functional.
Assay [4] deals with Staphylococcus aureus. Nature of the assay: Antibacterial activity against Staphylococcus aureus KCTC 1928 at 50 ug/disk after 48 hrs by disk diffusion method. In kind it is functional, organism-based.
In assay [5] the test system is Bacillus subtilis. Nature of the assay: Antibacterial activity against Bacillus subtilis KCTC 1021 at 5 ug/disk after 48 hrs by disk diffusion method. Type of assay: functional, organism-based.

`CC(C)[C@@H]1OC(=O)[C@@H]2CCCN2C(=O)[C@@H](Cc2ccccc2)NC(=O)[C@@H]2CCCN2C(=O)[C@@H](Cc2ccccc2)NC1=O` [ALTERNARAMIDE]: the zone of inhibition at 400 µg/disc amounted to 8 mm with Bacillus subtilis [1] and 13 mm in the assay on Staphylococcus aureus [3]. For the same compound, the outcome in the assay on Candida albicans, with Cryptococcus neoformans and in the assay on Proteus vulgaris was inactive. Moreover, the inhibition in assay [2] stood at 49%.

Regarding GENTAMICIN, the inhibition zone (IZ) with Staphylococcus aureus [4] turned out to be 13 mm; in the assay with Bacillus subtilis [5] it was 16 mm.

As a reminder, the inhibition is the relative decrease from the control value, in per cent.

The values are drawn from ChEMBL document CHEMBL1154805, “Alternaramide, a cyclic depsipeptide from the marine-derived fungus Alternaria sp. SF-5016” (2009).
